Reference: ChEMBL document CHEMBL1128879, “Design, synthesis, and structure-activity relationships of 2-substituted-2-amino-1,3-propanediols: Discovery of a novel immunosuppressant, FTY720” (Bioorg Med Chem Lett, 1995)
Blank lines part the entries; values can stand above or below the compound they belong to.

Key:
Mus musculus = species on record: Mus musculus; experiment: In vitro ability to inhibit mouse allogenic mixed leukocyte response (MLR); assay type: functional
Rattus norvegicus [1] = experiment: Compound was evaluated in vivo for the immunosuppressive activity following intraperitoneal (ip) administration at a dose of 0.3 mg/Kg; assay type: functional
Rattus norvegicus [2] = experiment: Compound was evaluated in vivo for the immunosuppressive activity following intraperitoneal (ip) administration at a dose of 1 mg/Kg; assay type: functional
Rattus norvegicus [3] = experiment: Compound was evaluated in vivo for the immunosuppressive activity following intraperitoneal (ip) administration at a dose of 3 mg/Kg; assay type: functional
Rattus norvegicus [4] = experiment: Compound was evaluated in vivo for the immunosuppressive activity following intraperitoneal (ip) administration at a dose of 0.1 mg/Kg; assay type: functional
Rattus norvegicus [5] = experiment: (§1) Compound was evaluated in vivo in rat skin allograft by intravenous (iv) administration; toxic; assay type: functional
Rattus norvegicus [6] = experiment: Compound was evaluated in vivo for the immunosuppressive activity following peroral (po) administration at a dose of 30 mg/Kg; assay type: functional
Rattus norvegicus [7] = experiment: Compound was evaluated in vivo for the immunosuppressive activity following peroral (po) administration at a dose of 3 mg/Kg; assay type: functional
Rattus norvegicus [8] = experiment: Compound was evaluated in vivo for the immunosuppressive activity following intravenous (iv) administration at a dose of 3 mg/Kg; assay type: functional
Rattus norvegicus [9] = experiment: Compound was evaluated in vivo for the immunosuppressive activity following intraperitoneal (ip) administration at a dose of 3 mg/kg; assay type: functional
Rattus norvegicus [10] = experiment: Compound was evaluated in vivo for the immunosuppressive activity following peroral (po) administration at a dose of 0.1 mg/Kg; assay type: functional
Rattus norvegicus [11] = experiment: Compound was evaluated in vivo in rat skin allograft by intravenous (iv) administration; not toxic; assay type: functional
Rattus norvegicus [12] = experiment: Compound was evaluated in vivo for the immunosuppressive activity following intravenous (iv) administration at a dose of 10 mg/Kg; assay type: functional
Rattus norvegicus [13] = experiment: Compound was evaluated in vivo for the immunosuppressive activity following intravenous (iv) administration at a dose of 0.1 mg/kg; assay type: functional
Rattus norvegicus [14] = experiment: as §1; assay type: organism-based

IC50 (Mus musculus): 19 nM
SMILES: CCCCCCc1ccc(CCCCC(N)(CO)CO)cc1

IC50 (Mus musculus): 54 nM
SMILES: NC(CO)(CO)CCCCCCCCCCc1ccccc1

SMILES: CCCCCCCCCCCCCCC(N)(CO)CO
MST (Rattus norvegicus [1]): 28 days | MST (Rattus norvegicus [2]): 40 days | MST (Rattus norvegicus [3]): 45 days | MST (Rattus norvegicus [4]): 12 days | Dose (Rattus norvegicus [5]): 10 mg/kg

IC50 (Mus musculus): 13 nM
SMILES: CCCCCCCCCCc1ccc(C(N)(CO)CO)cc1

IC50 (Mus musculus): 100 nM
SMILES: CCCCc1ccc(CCCCCCC(N)(CO)CO)cc1

SMILES: CCCCCCCCCc1ccc(CC(N)(CO)CO)cc1
IC50 (Mus musculus): 70 nM

SMILES: CCCCCCCCc1ccc(CCC(N)(CO)CO)cc1 [FINGOLIMOD]
MST (Rattus norvegicus [6]): 57.8 days | MST (Rattus norvegicus [1]): 36 days | MST (Rattus norvegicus [7]): 41 days | MST (Rattus norvegicus [2]): 45 days | MST (Rattus norvegicus [8]): 46.3 days | MST (Rattus norvegicus [9]): 60 days | MST (Rattus norvegicus [4]): 32 days | MST (Rattus norvegicus [10]): 19.3 days | Dose (Rattus norvegicus [11]): 10 mg/kg | MST (Rattus norvegicus [12]): 53.5 days | MST (Rattus norvegicus [13]): 24.8 days

IC50 (Mus musculus): 350 nM
SMILES: CCCCCCCc1ccc(CCCC(N)(CO)CO)cc1

SMILES: CCCCCCCCCCCCCCCC(N)(CO)CO
Dose (Rattus norvegicus [14]): 3 mg/kg

IC50 (Mus musculus): 8.5 nM
SMILES: CCCCCCCCCc1ccc(CCC(N)(CO)CO)cc1

IC50 (Mus musculus): 32 nM
SMILES: CCc1ccc(CCCCCCCCC(N)(CO)CO)cc1
